# Test results from US20130251633A1, “SYSTEMS, METHODS, AND DEVICES FOR ULTRASONIC ASSESSMENT OF CANCER AND RESPONSE TO THERAPY” (The Trustees of Columbia University in the City of New York, priority 2010, published 2013).
# Assays:
# Format in all cases: in vivo, NCR nude mice
# NGP xenografts = test: Tumor 2-D cross-sectional area by ultrasound, NGP xenografts; settings: NGP tumors, BV vs. control, 5 days
# Procedure: (§1) The identity of the neuroblastoma cell lines NGP and SK-NEP-1 were verified by STR profiling. The cell lines were stably transfected with FUW-Luciferase plasmid and were selected and maintained in 1 mg/ml neomycin. 1×10^6 cells were injected intrarenally into 4-6 week old NCR female nude mice. The resulting xenografts were monitored for growth using bioluminescence. At a threshold corresponding to 1-2 g, tumors were randomized to control or treatment groups (cohort size 5-8 mice per modality and treatment groups). […] Animals were killed by CO2 inhalation at indicated time points (at day 5 after serial imaging studies, and at days 0, 1, 3, and 5 for control and lectin perfusion analyses). At euthanasia, mice were injected with fluorescein-labeled Lycopersicon esculentum lectin (100 μg/100 μl PBS). Vasculature was fixed by infusing 1% paraformaldehyde. 40-μm sections were cut using a vibratome, and digital images subjected to computer-assisted quantitative analysis of tumor vessel architecture.
# SK-NEP-1 xenografts = test: Tumor 2-D cross-sectional area by ultrasound, SK-NEP-1 xenografts
# Procedure: (§2) To evaluate vascular response (blood volume, perfusion, and molecular expression), two human cancer cell lines (SK-NEP and NGP) were implanted in nude mice and allowed to develop for five weeks. High-frequency ultrasound imaging of the tumors was performed at 40 MHz using a Visualsonics Vevo 770 during bolus tail-vein injections of size-selected microbubble suspensions. […] The bolus was […] and the concentration was 5×10^8 microbubbles/mL. The change in intensity of the ultrasound signal was used to determine the relative blood volume. Targeted microbubbles bearing cyclic RGD-peptides (or cyclic RAD-peptides for the control microbubbles) were used to measure the level of active angiogenesis. The mice were imaged at 0, 1, 3, and 5 days. Immediately after the imaging sessions on days 0 and 3, 0.2 cc of BV (2.5 mg/mL) was administered to the mice. After day 5, the mice were euthanized, and their tumors excised for ex vivo analysis.
# (§3) The identity of the neuroblastoma cell lines NGP and SK-NEP-1 were verified by STR profiling. […] The resulting xenografts were monitored for growth using bioluminescence. […] 40-μm sections were cut using a vibratome, and digital images subjected to computer-assisted quantitative analysis of tumor vessel architecture.
# Xenografts formed in the kidney of NCR nude mice with the human Ewing family tumor cell line SK-NEP-1 are highly sensitive to VEGF blockade therapy, while human neuroblastoma NGP cell lines are much less responsive to VEGF blockade therapy. The intrarenally implanted xenograft tumors were monitored for growth and randomly assigned to biweekly injections of anti-VEGF antibody BV or vehicle. […] To confirm the characterization of responsiveness, 2-D tumor area was measured by ultrasonography, the results of which are shown in FIG. 11.
# The tumor 2-D cross-sectional area was determined from the ultrasound images using Visualsonics software. Area measurements of the tumor were calculated from the ultrasound images using a ROI that encompassed the hypoechoic region of the kidney (tumor tissue). […]
# SK-NEP-1 tumors [1] = test: CEUS perfusion imaging (relative microbubble perfusion), SK-NEP-1 tumors; settings: SK-NEP-1 cohorts, days 0 to 5, linear mixed-effects model
# Procedure: The identity of the neuroblastoma cell lines NGP and SK-NEP-1 were verified by STR profiling. The cell lines were stably transfected with FUW-Luciferase plasmid and were selected and maintained in 1 mg/ml neomycin. 1×10^6 cells were injected intrarenally into 4-6 week old NCR female nude mice. The resulting xenografts were monitored for growth using bioluminescence. At a threshold corresponding to 1-2 g, tumors were randomized to control or treatment groups (cohort size 5-8 mice per modality and treatment groups). BV (0.5 mg) was administered immediately after imaging on days 0 and 3. Animals were killed by CO2 inhalation at indicated time points (at day 5 after serial imaging studies, and at days 0, 1, 3, and 5 for control and lectin perfusion analyses). […] 40-μm sections were cut using a vibratome, and digital images subjected to computer-assisted quantitative analysis of tumor vessel architecture. […]
# Mice were anesthetized and placed on a physiological monitoring platform, and their tail veins were catheterized for injections using a 27-gauge, ½-inch butterfly catheter. […] Contrast enhancement was detected using background subtraction from reference videos acquired before the microbubble injection. […] Relative microbubble perfusion (rmp) was defined as the maximum signal enhancement and determined by regression of a monoexponential function to the time-intensity curve during microbubble uptake. […]
# SK-NEP-1 tumors [2] = test: Fluorescein-labeled lectin perfusion analysis of tumor vasculature, SK-NEP-1 tumors
# Procedure: as §1
# After binarization of the images, microvessel density (MVD) was estimated by the total number of white pixels per field. The results shown in FIGS. 10A-10B are as the mean pixel count per image +SD.
# Computer-assisted image analysis was used to examine changes in specific vessel features. […] To more closely estimate numbers of vessels, total length can be calculated by skeletonizing images and then scoring these by computer. […] New vascular branches can form a dynamic and relatively VEGF-dependent element in angiogenic networks.
# NGP tumors [3] = test: Fluorescein-labeled lectin perfusion analysis of tumor vasculature, NGP tumors; settings: BV-treated NGP tumors
# Procedure: The identity of the neuroblastoma cell lines NGP and SK-NEP-1 were verified by STR profiling. The cell lines were stably transfected with FUW-Luciferase plasmid and were selected and maintained in 1 mg/ml neomycin. 1×10^6 cells were injected intrarenally into 4-6 week old NCR female nude mice. The resulting xenografts were monitored for growth using bioluminescence. At a threshold corresponding to 1-2 g, tumors were randomized to control or treatment groups (cohort size 5-8 mice per modality and treatment groups). BV (0.5 mg) was administered immediately after imaging on days 0 and 3. Animals were killed by CO2 inhalation at indicated time points (at day 5 after serial imaging studies, and at days 0, 1, 3, and 5 for control and lectin perfusion analyses). […] 40-μm sections were cut using a vibratome, and digital images subjected to computer-assisted quantitative analysis of tumor vessel architecture.
# Quantified changes in lectin perfusion studies of tumor vasculature were consistent with changes detected by CEUS. […]
# Computer-assisted image analysis was used to examine changes in specific vessel features. If vascular area is calculated from total pixels, large-diameter vessels contributed disproportionately to MVD as compared to fine capillaries. To more closely estimate numbers of vessels, total length can be calculated by skeletonizing images and then scoring these by computer. […]
# NGP tumors [4] = test: CEUS perfusion imaging (relative microbubble perfusion), NGP tumors; settings: for increase in mean rmp: BV-treated NGP tumors
# Procedure: The identity of the neuroblastoma cell lines NGP and SK-NEP-1 were verified by STR profiling. The cell lines were stably transfected with FUW-Luciferase plasmid and were selected and maintained in 1 mg/ml neomycin. 1×10^6 cells were injected intrarenally into 4-6 week old NCR female nude mice. The resulting xenografts were monitored for growth using bioluminescence. At a threshold corresponding to 1-2 g, tumors were randomized to control or treatment groups (cohort size 5-8 mice per modality and treatment groups). BV (0.5 mg) was administered immediately after imaging on days 0 and 3. Animals were killed by CO2 inhalation at indicated time points (at day 5 after serial imaging studies, and at days 0, 1, 3, and 5 for control and lectin perfusion analyses). At euthanasia, mice were injected with fluorescein-labeled Lycopersicon esculentum lectin (100 μg/100 μl PBS). Vasculature was fixed by infusing 1% paraformaldehyde. 40-μm sections were cut using a vibratome, and digital images subjected to computer-assisted quantitative analysis of tumor vessel architecture.
# Size-selected microbubbles described above were used for perfusion and molecular imaging. Lipid-coated, perfluorobutane-filled microbubbles were produced by mechanical agitation. For targeting, a maleimide group was included on the distal end of the polyethylene glycol group on the lipopolymer used to coat the microbubbles. Residual lipid was removed and 4.5-μm median diameter microbubbles were isolated by centrifugation. Targeted microbubbles were then conjugated to cysteine-tagged RGD (target) or RAD (control) peptides and washed again to remove residual peptide. RGD conjugation was confirmed by HPLC and MALDI-TOF. Ultrasound imaging was performed using a small-animal ultrasound scanner with a 30-MHz transducer.
# Mice were anesthetized and placed on a physiological monitoring platform, and their tail veins were catheterized for injections using a 27-gauge, ½-inch butterfly catheter. The transducer was positioned at the tumor midsection, and 2-D ultrasound images were acquired using a field of view of 17×17 mm. A 50-μL bolus (2.5×10^7 microbubbles) followed by a 15-μL saline flush were injected while imaging at the maximum frame rate for respiratory gating (˜11 frames/second) and 100% power. Maximum intensity persistence (MIP) images were acquired using non-targeted RAD-microbubbles. Contrast enhancement was detected using background subtraction from reference videos acquired before the microbubble injection. […] Relative microbubble perfusion (rmp) was defined as the maximum signal enhancement and determined by regression of a monoexponential function to the time-intensity curve during microbubble uptake. […]
# NGP tumors [5] = test: Ultrasound molecular imaging with RGD-microbubbles (relative targeted microbubble adhesion, αvβ3 integrin), NGP tumors; settings: exponential decay model, days 0-5
# Procedure: as §2, with “The mice were imaged at 0, 1, 3, and 5 days. Immediately after the imaging sessions on days 0 and 3, 0.2 cc of BV (2.5 mg/mL) was administered to the mice. After day 5, the mice were euthanized, and their tumors excised for ex vivo analysis.” left out
# as §3, with “architecture. […]” for “architecture.”
# For molecular ultrasound imaging, a series of lower frequency pulses was applied to destroy microbubbles in the field of view 10 minutes after microbubble injection. […] The relative targeted microbubble adhesion (rtma) was measured as the difference in the linearized grayscale pixel intensities within the ROI for targeted RGD-microbubbles, minus that for RAD-microbubbles. […]
# SK-NEP-1 tumors [6] = test: Ultrasound molecular imaging with RGD-microbubbles (relative targeted microbubble adhesion, αvβ3 integrin), SK-NEP-1 tumors
# Procedure: as §1
substance,measurement,setting,value
bevacizumab [BV],tumor growth,NGP xenografts,unaffected
same,changes in tumor size,"SK-NEP-1 xenografts; SK-NEP tumor-bearing mice, 0.2 cc BV (2.5 mg/mL) on days 0 and 3",no significant changes
same,change in tumor 2-D cross-sectional area (ultrasound),"SK-NEP-1 xenografts; SK-NEP-1 mice, BV 0.5 mg on days 0 and 3, over the 5 day period",−5%
same,tumor growth in comparison to control,"SK-NEP-1 xenografts; SK-NEP-1 xenografts, days 3 and 5",significantly arrested tumor growth
same,"slopes of the linear regression of rmp, BV-treated vs control",SK-NEP-1 tumors [1],statistically different
same,decrease in microvessel density (MVD) compared to day 0 controls,"SK-NEP-1 tumors [2]; BV-treated SK-NEP-1 tumors, day 1",66%
same,total vessel length,"SK-NEP-1 tumors [2]; SK-NEP-1, days 1, 3, 5",significantly decreased
same,total vascular branch number,"SK-NEP-1 tumors [2]; SK-NEP-1, days 3 and 5",significantly decreased
same,microvessel density (MVD) compared to day 0 controls,NGP tumors [3],did not change
same,increase in mean rmp,NGP tumors [4]; by day 1,38±21%
same,increase in mean rmp,NGP tumors [4]; by day 3,57±48%
same,increase in mean rmp,NGP tumors [4]; by day 5,105±41%
same,"slopes of the linear regression of rmp, BV-treated vs control","NGP tumors [4]; NGP cohorts, days 0 to 5, linear mixed-effects model",no difference
same,"difference in rtma decay rates, BV-treated vs control",NGP tumors [5],no difference was observed
same,reduction of the difference in image intensity (before/after destruction pulse),"SK-NEP-1 tumors [6]; BV-responsive tumors, RGD microbubbles, after 3 days following treatment",> 95%
same,decrease in mean rtma,"SK-NEP-1 tumors [6]; BV-treated SK-NEP-1, by day 5",99±5%
same,"difference in rtma decay rates, BV-treated vs control","SK-NEP-1 tumors [6]; SK-NEP-1, exponential decay model, days 0-5",statistically different
same,αvβ3 integrin binding of RGD-bearing microbubbles in the tumor region,"SK-NEP-1 tumors [6]; treated SK-NEP mice, three days following BV administration",significant drop
